Converted amounts (≈) assume the structure as drawn. Read-outs that look alike come from different tables or passages of the source. Marks after values point to notes of the source that are not given here. Where no end group is shown, it is not given here.
Columns and labels:
E. coli ML-35p [1] = test: microbe, parasite or virus in culture; format: cell-based, Escherichia coli; conditions: median of 3–6 experiments, value in square brackets = twice the maximal tested concentration, read-out: MIC
E. coli ML-35p [2] = test: Bacterial membrane permeabilization assay, inner membrane (ONPG); format: cell-based, Escherichia coli; conditions: ONPG marker; for effect on cytoplasmic membrane permeability, substance alone (in words): ¼ MIC
Text: The method is based on the certain features of the specifically designed E. coli ML-35p bacterial strain. As its parental strain E. coli ML-35, this bacterium constitutively expresses cytoplasmic β-galactosidase, but is unable to transport β-galactoside containing substrates through the inner membrane in normal circumstances due to the lack of lactose permease. […] If the cytoplasmic membrane of the bacterium is damaged, the chromogenic marker o-nitrophenyl-β-D-galactoside (ONPG) penetrates into the cell and, when digested by bacterial β-galactosidase, produces a colored product o-nitrophenol. The accumulation of the latter can be spectrophotometrically detected at a wavelength of 420 nm.
Escherichia coli ML-35p was cultivated in the sterile 3% Trypticase soy broth (TSB) for 18 h at 37°C, then washed three times with 10 mM sodium phosphate buffer, pH 7.4 (10 min centrifugation at 600 g and 4°C), diluted up to the OD of 0.4 at 620 nm (1 × 10^8 CFU/ml concentration), and used immediately or kept on ice until the start of the test. […] Controls contained equivalent volume of acidified water instead of antimicrobial agent(s). The assay was started by adding the bacteria and was run at 37°C, with periodical shaking. Optical density (OD) measurement at 420 nm was performed every minute for 1–2 h using SpectraMax 250 Microplate Spectrophotometer (Molecular Devices, USA) and its SoftMax PRO software.
(A) Permeability of the inner membrane for a chromogenic marker o-nitrophenyl-β-D-galactoside (ONPG). ¼ of minimal inhibitory concentrations (MICs) of antimicrobial peptides (AMPs) and antibiotics were used when alone, and ¼ MIC of AMP + ¼ MIC of antibiotic when in combination. Curves illustrate ONPG degradation by the cytoplasmic β-galactosidase of bacteria, when the membranes are damaged by test substances. Curves slope and the time of their rising to the plateau correspond to the extent of this damage. […] Nitrocefin is a substrate for the periplasmic β-lactamase of the bacteria. RIF, rifampicin; PMB, polymyxin B; GEN, gentamicin; OFL, ofloxacin; OX, oxacillin.

A. baumannii 7226/16 [3] = test: Checkerboard titration (FICI); format: cell-based, Acinetobacter baumannii
Procedure: (§1) The combined antimicrobial action of AMPs and other antimicrobial compounds was assessed using checkerboard titration approach under the conditions similar to that of the microdilution assay. According to checkerboard titration template, one component (A) of the combination was diluted along the rows of the plate, while the other (B) was diluted down the columns, thereby creating the variety of mixtures with different concentrations of tested compounds. 2.5 μl of corresponding solutions of the components A and B were added into each well of the plate. Into the first column and the last row the same amount of 10 mM sodium phosphate buffer, pH 7.4, containing 0.1% of BSA was introduced instead of the second component. Thus, all wells contained 5 μl of antimicrobial compounds solutions (solo or in combination). The same volume of bacterial suspension, prepared as described for microdilution assay, was added into each well. The results were recorded after the overnight incubation, visually indicating the presence or absence of the microbial growth in the corresponding wells. Based on the obtained data the isobolograms of combined action were plotted and/or Fractional Inhibitory Concentration Indices (FICI) were calculated. […] Depending on the minimal value of the FICI the combined effect of the combination was classified as antagonism (FICI > 2), independent action (1 < FICI ≤ 2), additivity (0.5 < FICI ≤ 1) or synergy (FICI ≤ 0.5), as is recommended in the literature and due to some drawbacks of the serial dilution method (Hsieh et al., [1993]; Orhan et al., [2005]; Fehri et al., [2007]). FICIs were assessed in 3–6 independent experiments and median values were used to define the nature of interaction.

[4] = system: K. pneumoniae ESBL 344/17; test: Checkerboard titration (FICI); format: cell-based, Klebsiella pneumoniae
Procedure: as §1

E. coli ESBL 521/17 [5] = test: Checkerboard titration (FICI); format: cell-based, Escherichia coli
Procedure: as §1

S. aureus 1399/17 [6] = test: Checkerboard titration (FICI); format: cell-based, Staphylococcus aureus
Procedure: as §1

S. aureus 1399/17 [7] = test: microbe, parasite or virus in culture; format: cell-based; conditions: Staphylococcus aureus; S. aureus 1399/17, drug-resistant clinical isolate; read-out: MIC
Procedure: (§2) Prior to the “checkerboard” synergy test the minimal inhibitory concentrations (MIC) of individual substances were determined using broth microdilution assay. Testing was performed in 60-well polystyrene Terasaki microplates with V-shaped bottom generally according to the guidelines of the European Committee for Antimicrobial Susceptibility Testing with subtle modifications designed for AMP testing (Tossi et al., [1997]; Wiegand et al., [2008]). Cultivation of bacteria was carried out in 2.1% Müller-Hinton broth at 37°C with shaking. Two-fold serial dilutions of peptides, antibiotics and other antimicrobials were made with 10 mM sodium phosphate buffer, pH 7.4, containing 0.1% of BSA. The plates were preliminary incubated with 0.1% BSA for 1 h at 37°C to reduce a non-specific binding of peptides to the plates. After that BSA was removed, and serial dilutions were added into the plate wells in triplicates followed by the same volume of the suspension of bacterial cells in logarithmic phase of growth in concentration of 1 × 10^6 CFU/ml. After the 18 h overnight incubation at 37°C, the MIC value for each compound was determined as its lowest concentration completely inhibiting the visible growth of bacteria. The final results were calculated as median values based on 3–6 independent experiments.

A. baumannii 7226/16 [8] = test: microbe, parasite or virus in culture; format: cell-based; conditions: Acinetobacter baumannii; A. baumannii 7226/16, drug-resistant clinical isolate
Procedure: as §2

P. aeruginosa MDR 522/17 [9] = test: microbe, parasite or virus in culture; format: cell-based; conditions: Pseudomonas aeruginosa, MDR522/17; P. aeruginosa MDR 522/17, drug-resistant clinical isolate
Procedure: as §2

E. coli ESBL 521/17 [10] = test: microbe, parasite or virus in culture; format: cell-based; conditions: Escherichia coli, ESBL521/17; E. coli ESBL 521/17, drug-resistant clinical isolate; square brackets = twice the maximal tested concentration
Procedure: as §2

[11] = system: K. pneumoniae ESBL 344/17; test: microbe, parasite or virus in culture; format: cell-based; conditions: Klebsiella pneumoniae, ESBL344/17; K. pneumoniae ESBL 344/17, drug-resistant clinical isolate
Procedure: as §2

P. aeruginosa MDR 522/17 [12] = test: Checkerboard titration (FICI); format: cell-based, Pseudomonas aeruginosa
Procedure: as §1

[13] = antibiotic in combination with ChBac3.4
[14] = antibiotic in combination with PG-1

## CO[C@H]1/C=C/O[C@@]2(C)Oc3c(C)c(O)c4c(O)c(c(/C=N/N5CCN(C)CC5)c(O)c4c3C2=O)NC(=O)/C(C)=C\C=C\[C@H](C)[C@H](O)[C@@H](C)[C@@H](O)[C@@H](C)[C@H](OC(C)=O)[C@@H]1C [Rifampicin]
E. coli ML-35p [1]; Escherichia coli, ML35P
  MIC: 10 µM (≈ 8.23 µg/mL)

## CC[C@H](C)[C@H](NC(=O)[C@H](CCCCN)NC(=O)[C@H](CCC(=O)O)NC(=O)[C@H](CCCCN)NC(=O)[C@H](CO)NC(=O)[C@H](CCCCN)NC(=O)[C@H](CCCNC(=N)N)NC(=O)[C@H](Cc1ccccc1)NC(=O)[C@H](Cc1ccccc1)NC(=O)[C@H](CC(=O)O)NC(=O)CNC(=O)[C@H](CC(C)C)NC(=O)[C@@H](N)CC(C)C)C(=O)NCC(=O)N[C@@H](CCCCN)C(=O)N[C@@H](CCC(=O)O)C(=O)N[C@@H](Cc1ccccc1)C(=O)N[C@@H](CCCCN)C(=O)N[C@@H](CCCNC(=N)N)C(=O)N[C@H](C(=O)N[C@H](C(=O)N[C@@H](CCC(N)=O)C(=O)N[C@@H](CCCNC(=N)N)C(=O)N[C@H](C(=O)N[C@@H](CCCCN)C(=O)N[C@@H](CC(=O)O)C(=O)N[C@@H](Cc1ccccc1)C(=O)N[C@@H](CC(C)C)C(=O)N[C@@H](CCCNC(=N)N)C(=O)N[C@@H](CC(N)=O)C(=O)N[C@@H](CC(C)C)C(=O)N[C@H](C(=O)N1CCC[C@H]1C(=O)N[C@@H](CCCNC(=N)N)C(=O)N[C@H](C(=O)N[C@@H](CCC(=O)O)C(=O)N[C@@H](CO)C(=O)O)[C@@H](C)O)C(C)C)[C@@H](C)CC)C(C)C)[C@@H](C)CC [LL-37]
E. coli ML-35p [2]; ¼ MIC + ¼ MIC gentamicin
  effect on cytoplasmic membrane permeability in presence of gentamicin vs peptide/protein alone (in words): developing rather quickly
E. coli ML-35p [2]
  effect on cytoplasmic membrane permeability, substance alone (in words): quite slow enhance of the membrane permeability

## CNC(C)C1CCC(N)C(OC2C(N)CC(N)C(OC3OCC(C)(O)C(NC)C3O)C2O)O1 (stereo not shown) [Gentamicin]
E. coli ML-35p [1]; Escherichia coli, ML35P
  MIC: 0.625 µM (≈ 0.299 µg/mL)
E. coli ML-35p [2]
  effect on cytoplasmic membrane permeability, substance alone (in words): no substantial increase

## Cc1onc(-c2ccccc2)c1C(=O)N[C@@H]1C(=O)N2[C@@H]1SC(C)(C)[C@@H]2C(=O)O [Oxacillin]
E. coli ML-35p [1]; Escherichia coli, ML35P
  MIC: > 250 µM
A. baumannii 7226/16 [3]; [13]
  Minimal FICI: 1.12
A. baumannii 7226/16 [3]; [14]
  Minimal FICI: 0.75
[4]; [13]
  Minimal FICI: 1.12
[4]; [14]
  Minimal FICI: 1.12
E. coli ESBL 521/17 [5]; [13]
  Minimal FICI: 1.12
E. coli ESBL 521/17 [5]; [14]
  Minimal FICI: 1.12
S. aureus 1399/17 [6]; [13]
  Minimal FICI: 0.25^*
S. aureus 1399/17 [6]; [14]
  Minimal FICI: 1.12
S. aureus 1399/17 [7]
  MIC: > 50 µM
A. baumannii 7226/16 [8]
  MIC: > 50 µM
P. aeruginosa MDR 522/17 [9]
  MIC: > 50 µM
E. coli ESBL 521/17 [10]
  MIC: > 50 µM
[11]
  MIC: > 50 µM
P. aeruginosa MDR 522/17 [12]; [13]
  Minimal FICI: 1.12
P. aeruginosa MDR 522/17 [12]; [14]
  Minimal FICI: 1.12

## RFRLPFRRPPIRIHPPPFYPPFRRFL-NH2 (C-terminus assumed) [ChBac3.4]
E. coli ML-35p [2]; ¼ MIC + ¼ MIC rifampicin
  development of membrane-damaging effect in combination with rifampicin (in words): slight acceleration
E. coli ML-35p [2]
  effect on cytoplasmic membrane permeability, substance alone (in words): no substantial effect

## CC1COc2c(N3CCN(C)CC3)c(F)cc3c(=O)c(C(=O)O)cn1c23 (stereo not shown) [Ofloxacin]
E. coli ML-35p [1]; Escherichia coli, ML35P
  MIC: 0.125 µM (≈ 0.0452 µg/mL)
A. baumannii 7226/16 [3]; [13]
  Minimal FICI: 0.5^*
A. baumannii 7226/16 [3]; [14]
  Minimal FICI: 0.62
[4]; [13]
  Minimal FICI: 0.75
[4]; [14]
  Minimal FICI: 0.5
E. coli ESBL 521/17 [5]; [13]
  Minimal FICI: 0.75
E. coli ESBL 521/17 [5]; [14]
  Minimal FICI: 0.75
S. aureus 1399/17 [6]; [13]
  Minimal FICI: 0.125^*
S. aureus 1399/17 [6]; [14]
  Minimal FICI: 0.56
S. aureus 1399/17 [7]
  MIC: > 50 µM
A. baumannii 7226/16 [8]
  MIC: 25 µM
P. aeruginosa MDR 522/17 [9]
  MIC: > 50 µM
E. coli ESBL 521/17 [10]
  MIC: 50 µM
[11]
  MIC: 0.25 µM
P. aeruginosa MDR 522/17 [12]; [13]
  Minimal FICI: 0.75
P. aeruginosa MDR 522/17 [12]; [14]
  Minimal FICI: 1.12

## Polymyxin B
E. coli ML-35p [1]
  MIC: 0.4 µM
